Measured values: BindingDB's records for doi:10.1021/jm060742o (Rheinische Friedrich-Wilhelms-Universitat Bonn, 2006)

How the values were obtained:
Assay in all cases: Cholinesterase Inhibition Assay
Acetylcholinesterase [1] = target: Acetylcholinesterase (Tetronarce californica, UniProt P04058)
Method: (§1) The cholinesterase assays were performed using colorimetric method reported by Ellman. The absorbance changed at 412 nm and was monitored with spectrophotometer. The reaction rates were compared and the percent inhibition due to the presence of test compounds was calculated. Inhibition curve was obtained for each compound. The compound concentration producing 50% of enzyme inhibition (IC50) was determined.

Acetylcholinesterase [2] = target: Acetylcholinesterase (Homo sapiens, UniProt P22303); settings: pH 7.3; 25 °C
Sequence of Acetylcholinesterase (Homo sapiens, UniProt P22303) (P22303 whole entry): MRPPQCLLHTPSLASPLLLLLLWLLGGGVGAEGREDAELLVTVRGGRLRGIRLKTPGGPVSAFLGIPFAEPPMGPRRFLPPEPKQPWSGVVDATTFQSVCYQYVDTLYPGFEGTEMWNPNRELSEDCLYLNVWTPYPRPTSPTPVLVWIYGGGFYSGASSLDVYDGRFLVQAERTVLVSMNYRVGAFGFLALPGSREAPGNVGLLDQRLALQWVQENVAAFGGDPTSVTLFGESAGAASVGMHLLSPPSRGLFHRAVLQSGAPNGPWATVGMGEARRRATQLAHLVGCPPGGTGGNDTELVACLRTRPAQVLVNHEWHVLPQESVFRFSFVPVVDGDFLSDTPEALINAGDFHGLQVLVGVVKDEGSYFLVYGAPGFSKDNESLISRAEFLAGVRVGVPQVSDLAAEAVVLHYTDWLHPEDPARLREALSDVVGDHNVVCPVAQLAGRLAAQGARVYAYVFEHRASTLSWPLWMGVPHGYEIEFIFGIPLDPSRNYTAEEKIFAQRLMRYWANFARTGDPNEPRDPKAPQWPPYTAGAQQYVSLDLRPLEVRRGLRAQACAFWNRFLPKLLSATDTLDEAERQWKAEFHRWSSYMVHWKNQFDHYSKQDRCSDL
Method: as §1

Acetylcholinesterase [3] = target: Acetylcholinesterase (Electrophorus electricus, UniProt O42275)
Sequence of Acetylcholinesterase (Electrophorus electricus, UniProt O42275) (O42275 whole entry): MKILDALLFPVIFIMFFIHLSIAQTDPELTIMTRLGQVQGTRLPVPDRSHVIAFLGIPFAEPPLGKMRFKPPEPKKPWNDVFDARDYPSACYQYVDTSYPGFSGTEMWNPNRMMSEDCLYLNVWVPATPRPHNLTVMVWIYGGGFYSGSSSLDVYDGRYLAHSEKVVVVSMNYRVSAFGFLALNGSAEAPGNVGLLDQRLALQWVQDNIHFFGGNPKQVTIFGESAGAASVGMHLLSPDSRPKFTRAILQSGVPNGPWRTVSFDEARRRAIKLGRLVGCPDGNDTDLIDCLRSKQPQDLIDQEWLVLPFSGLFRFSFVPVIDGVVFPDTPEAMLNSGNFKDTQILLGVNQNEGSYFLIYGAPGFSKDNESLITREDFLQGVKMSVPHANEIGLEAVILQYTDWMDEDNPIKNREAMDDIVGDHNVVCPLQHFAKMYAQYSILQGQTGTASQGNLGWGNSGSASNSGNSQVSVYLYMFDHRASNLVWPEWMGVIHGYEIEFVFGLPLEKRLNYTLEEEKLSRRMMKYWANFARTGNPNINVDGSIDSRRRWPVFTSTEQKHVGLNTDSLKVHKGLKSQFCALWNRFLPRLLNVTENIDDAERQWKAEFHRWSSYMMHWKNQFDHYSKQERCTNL
Method: as §1

Cholinesterase = Cholinesterase (Homo sapiens, UniProt P06276)
Sequence of Cholinesterase (P06276 whole entry): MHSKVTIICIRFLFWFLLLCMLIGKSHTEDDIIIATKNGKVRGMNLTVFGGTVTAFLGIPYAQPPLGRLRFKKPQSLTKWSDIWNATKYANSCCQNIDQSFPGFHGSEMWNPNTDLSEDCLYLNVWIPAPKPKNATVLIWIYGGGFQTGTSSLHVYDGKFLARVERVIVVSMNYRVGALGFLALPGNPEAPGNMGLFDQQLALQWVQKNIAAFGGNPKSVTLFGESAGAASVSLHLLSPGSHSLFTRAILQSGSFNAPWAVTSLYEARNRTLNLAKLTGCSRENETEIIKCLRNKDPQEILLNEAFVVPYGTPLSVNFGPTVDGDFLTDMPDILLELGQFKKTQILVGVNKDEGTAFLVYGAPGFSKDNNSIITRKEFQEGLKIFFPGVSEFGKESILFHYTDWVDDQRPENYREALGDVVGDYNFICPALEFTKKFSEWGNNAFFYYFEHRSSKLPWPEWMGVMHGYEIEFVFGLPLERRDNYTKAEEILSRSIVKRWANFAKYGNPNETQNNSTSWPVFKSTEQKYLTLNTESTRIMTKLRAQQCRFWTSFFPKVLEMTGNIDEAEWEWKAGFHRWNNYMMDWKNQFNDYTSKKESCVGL
Method: as §1

Sequence of Acetylcholinesterase (Tetronarce californica, UniProt P04058) (P04058 whole entry): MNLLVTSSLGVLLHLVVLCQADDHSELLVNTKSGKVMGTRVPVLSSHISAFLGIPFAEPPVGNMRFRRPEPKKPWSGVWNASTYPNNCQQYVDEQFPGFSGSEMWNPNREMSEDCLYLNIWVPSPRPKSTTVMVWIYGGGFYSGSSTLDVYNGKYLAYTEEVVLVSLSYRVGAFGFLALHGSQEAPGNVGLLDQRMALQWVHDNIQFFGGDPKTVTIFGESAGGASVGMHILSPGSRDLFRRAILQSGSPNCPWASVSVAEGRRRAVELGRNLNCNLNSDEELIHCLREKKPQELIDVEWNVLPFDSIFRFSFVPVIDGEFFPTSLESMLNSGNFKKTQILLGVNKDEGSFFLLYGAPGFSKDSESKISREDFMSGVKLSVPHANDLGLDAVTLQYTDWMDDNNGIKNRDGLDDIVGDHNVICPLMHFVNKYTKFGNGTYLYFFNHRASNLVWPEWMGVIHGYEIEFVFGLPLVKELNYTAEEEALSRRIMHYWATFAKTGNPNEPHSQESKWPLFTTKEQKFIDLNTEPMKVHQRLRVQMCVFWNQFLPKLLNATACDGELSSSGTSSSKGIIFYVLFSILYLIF

Row | Compound | IC50 (Acetylcholinesterase [1]) | IC50 (Acetylcholinesterase [2]) | IC50 (Acetylcholinesterase [3]) | IC50 (Cholinesterase) | Ki (Acetylcholinesterase [3])
1 | COc1cc(C(=O)NCCCCCCCCC(=O)NNc2c3c(nc4ccccc24)CCCC3)cc(OC)c1OC [3,4,5-Trimethoxy-N-(9-oxo-9-(2-(1,2,3,4-tetrahydroacridin-9-yl)hydrazino)nonyl)-benzamide] | 5.99 nM | 5.08 nM | 2.73 nM | 1.38 nM | 
2 | COc1cc(C(=O)NCCCCCCCC(=O)NNc2c3c(nc4ccccc24)CCCC3)cc(OC)c1OC [3,4,5-trimethoxy-N-[7-(N'-1,2,3,4-tetrahydroacridin-9-ylhydrazinecarbonyl)heptyl]benzamide] |  |  |  |  | 3.23 nM
